Measured values taken from patent publication US9163013B2, “Use of 1H-indazole-3-carboxamide compounds as glycogen synthase kinase 3 beta inhibitors” (AZIENDE CHIMICHE RIUNITE ANGELINI FRANCESCO A.C.R.A.F. …, priority 2012, dated 2015).

What was measured:
HGK (h) (MAP4K4) = HGK (h) (MAP4K4) (Homo sapiens (Human), UniProt O95819); experiment: Kinase selectivity panel; format: biochemical; details: duplicate, read-out: % inhibition of control values, HGK (h) (MAP4K4)
Method: (§1) (a) Compound 1 was tested against a panel of 60 kinases in order to assess its selectivity. The assays were chosen taking into consideration the diversity of assay families.
(§2) Human recombinant kinases were incubated in the presence of specific peptide substrates plus ATP for different times (10, 15, 30, 60 or 90 minutes) at 22° C. Phosphorylated substrate was detected by LANCE or HTRF technology (CISBIO, MA, USA).
(§3) Compound 1 was tested at 10 μM in duplicate.
(§4) The results are expressed as a percent of inhibition of control specific activity obtained in the presence of the test compound 1 and are reported in the following Table 5.
(§5) (b) Compounds 7, 12, 21 and 24 were tested against the same panel of 60 kinases under the same conditions described above for compound 1.
(§6) The results are expressed as a percent of inhibition of control specific activity obtained in the presence of the test compounds and are reported in the following Table 6.

Src kinase (h) = Src kinase (h) (Homo sapiens (Human), UniProt P12931); experiment: Kinase selectivity panel; format: biochemical; details: duplicate, read-out: % inhibition of control values, Src kinase (h)
Src kinase (h), sequence (P12931 whole entry, looked up): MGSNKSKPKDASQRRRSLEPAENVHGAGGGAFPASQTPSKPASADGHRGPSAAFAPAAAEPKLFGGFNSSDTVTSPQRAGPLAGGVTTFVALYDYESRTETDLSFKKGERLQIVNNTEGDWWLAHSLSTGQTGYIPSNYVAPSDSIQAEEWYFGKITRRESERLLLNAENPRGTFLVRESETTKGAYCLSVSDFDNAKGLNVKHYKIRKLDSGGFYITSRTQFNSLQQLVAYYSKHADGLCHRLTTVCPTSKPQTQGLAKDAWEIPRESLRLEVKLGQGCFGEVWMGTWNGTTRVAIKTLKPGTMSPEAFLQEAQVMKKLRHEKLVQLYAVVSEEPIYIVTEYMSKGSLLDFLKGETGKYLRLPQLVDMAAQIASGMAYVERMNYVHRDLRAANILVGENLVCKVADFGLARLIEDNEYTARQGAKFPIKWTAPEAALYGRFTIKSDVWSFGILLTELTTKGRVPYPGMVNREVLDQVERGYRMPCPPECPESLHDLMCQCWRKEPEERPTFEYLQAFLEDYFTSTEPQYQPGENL
Method: as §1, §2, §3, §4, §5, §6

NEK1 (h) = NEK1 (h) (Homo sapiens (Human), UniProt Q96PY6); experiment: Kinase selectivity panel; format: biochemical; details: duplicate, read-out: % inhibition of control values, NEK1 (h)
Method: as §1, §2, §3, §4, §5, §6

ERK2 (h) (P42mapk) = ERK2 (h) (P42mapk) (Homo sapiens (Human), UniProt P28482); experiment: Kinase selectivity panel; format: biochemical; details: duplicate, read-out: % inhibition of control values, ERK2 (h) (P42mapk)
Method: as §1, §2, §3, §4, §5, §6

TAOK2 (TAO1) (h) = TAOK2 (TAO1) (h) (Homo sapiens (Human), UniProt Q9UL54); experiment: Kinase selectivity panel; format: biochemical; details: duplicate, read-out: % inhibition of control values, TAOK2 (TAO1) (h)
Method: as §1, §2, §3, §4, §5, §6

smMLCK (h) (MYLK) = smMLCK (h) (MYLK) (Homo sapiens (Human), UniProt Q15746); experiment: Kinase selectivity panel; format: biochemical; details: duplicate, read-out: % inhibition of control values, smMLCK (h) (MYLK)
Method: as §1, §2, §3, §4, §5, §6

CDC2/CDK1 (h) (cycB) = CDC2/CDK1 (h) (cycB) (Homo sapiens (Human), UniProt P06493); experiment: Kinase selectivity panel; format: biochemical; details: duplicate, read-out: % inhibition of control values, CDC2/CDK1 (h) (cycB)
CDC2/CDK1 (h) (cycB), sequence (P06493 whole entry): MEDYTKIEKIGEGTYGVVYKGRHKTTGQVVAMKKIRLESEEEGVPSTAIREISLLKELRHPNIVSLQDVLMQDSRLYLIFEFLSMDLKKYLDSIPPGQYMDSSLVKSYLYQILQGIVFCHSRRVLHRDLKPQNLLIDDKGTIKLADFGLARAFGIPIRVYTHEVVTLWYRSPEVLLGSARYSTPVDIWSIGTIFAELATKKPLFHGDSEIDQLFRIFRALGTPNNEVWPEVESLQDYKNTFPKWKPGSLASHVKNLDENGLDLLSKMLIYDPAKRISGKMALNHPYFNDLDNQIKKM
CDC2/CDK1 (h) (cycB), sequence (P14635 whole entry partner): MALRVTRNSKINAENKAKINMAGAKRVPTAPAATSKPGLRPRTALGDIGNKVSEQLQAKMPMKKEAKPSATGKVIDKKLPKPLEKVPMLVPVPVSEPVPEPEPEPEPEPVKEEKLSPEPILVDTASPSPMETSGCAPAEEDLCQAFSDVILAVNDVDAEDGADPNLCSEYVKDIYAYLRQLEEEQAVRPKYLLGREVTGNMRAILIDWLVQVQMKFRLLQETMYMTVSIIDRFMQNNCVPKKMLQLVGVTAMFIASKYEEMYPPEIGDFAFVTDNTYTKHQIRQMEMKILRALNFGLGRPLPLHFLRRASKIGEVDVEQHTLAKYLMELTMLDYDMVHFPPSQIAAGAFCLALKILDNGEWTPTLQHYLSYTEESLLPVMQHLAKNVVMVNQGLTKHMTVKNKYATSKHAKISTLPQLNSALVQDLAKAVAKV
Method: as §1, §2, §3, §4, §5, §6

CDK5/p35 (h) = CDK5/p35 (h) (Homo sapiens (Human), UniProt Q00535); experiment: Kinase selectivity panel; format: biochemical; details: duplicate, read-out: % inhibition of control values, CDK5/p35 (h)
CDK5/p35 (h), sequence (Q00535 whole entry): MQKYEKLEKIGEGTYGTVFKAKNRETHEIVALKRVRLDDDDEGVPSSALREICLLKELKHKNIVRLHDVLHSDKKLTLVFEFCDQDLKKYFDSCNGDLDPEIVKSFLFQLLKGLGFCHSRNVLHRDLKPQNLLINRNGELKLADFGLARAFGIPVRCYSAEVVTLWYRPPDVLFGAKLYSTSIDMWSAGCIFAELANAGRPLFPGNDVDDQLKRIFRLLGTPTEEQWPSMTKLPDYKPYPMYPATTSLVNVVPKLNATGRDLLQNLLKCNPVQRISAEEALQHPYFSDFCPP
CDK5/p35 (h), sequence (Q15078 whole entry partner): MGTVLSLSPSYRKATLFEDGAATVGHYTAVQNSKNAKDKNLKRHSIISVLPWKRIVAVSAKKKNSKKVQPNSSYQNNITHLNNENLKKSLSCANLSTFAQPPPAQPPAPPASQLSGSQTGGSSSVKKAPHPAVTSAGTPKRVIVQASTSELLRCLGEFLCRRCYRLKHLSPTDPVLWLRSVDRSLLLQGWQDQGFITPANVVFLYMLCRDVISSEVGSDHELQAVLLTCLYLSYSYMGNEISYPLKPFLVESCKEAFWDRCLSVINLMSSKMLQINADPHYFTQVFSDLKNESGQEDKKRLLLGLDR
Method: as §1, §2, §3, §4, §5, §6

GSK3beta (h) = GSK3beta (h) (Homo sapiens (Human), UniProt P49841); experiment: Kinase selectivity panel; format: biochemical; details: for inhibition at 10 µM: duplicate, read-out: % inhibition of control values, GSK3beta (h); for Selectivity for GSK-3β compared to the other kinases of the panel: panel of 60 kinases, 10 μM
GSK3beta (h), sequence (P49841 whole entry): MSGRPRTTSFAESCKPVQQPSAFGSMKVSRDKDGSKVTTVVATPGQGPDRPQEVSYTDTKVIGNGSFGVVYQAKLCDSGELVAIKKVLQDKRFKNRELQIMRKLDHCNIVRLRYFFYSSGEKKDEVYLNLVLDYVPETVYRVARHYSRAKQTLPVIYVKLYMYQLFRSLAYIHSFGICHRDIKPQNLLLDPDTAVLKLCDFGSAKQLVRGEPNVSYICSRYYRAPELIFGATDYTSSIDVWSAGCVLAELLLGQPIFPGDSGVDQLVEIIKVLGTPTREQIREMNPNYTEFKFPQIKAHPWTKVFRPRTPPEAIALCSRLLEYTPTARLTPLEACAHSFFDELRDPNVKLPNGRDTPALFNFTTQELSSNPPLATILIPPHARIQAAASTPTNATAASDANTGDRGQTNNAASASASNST
Method: as §1, §2, §3, §4, §5, §6

TRKA (h) = TRKA (h) (Homo sapiens (Human), UniProt P04629); experiment: Kinase selectivity panel; format: biochemical; details: duplicate, read-out: % inhibition of control values, TRKA (h)
Method: as §1, §2, §3, §4, §5, §6

IRK (h) (InsR) = IRK (h) (InsR) (Homo sapiens (Human), UniProt P06213); experiment: Kinase selectivity panel; format: biochemical; details: duplicate, read-out: % inhibition of control values, IRK (h) (InsR)
IRK (h) (InsR), sequence (P06213 28-1382): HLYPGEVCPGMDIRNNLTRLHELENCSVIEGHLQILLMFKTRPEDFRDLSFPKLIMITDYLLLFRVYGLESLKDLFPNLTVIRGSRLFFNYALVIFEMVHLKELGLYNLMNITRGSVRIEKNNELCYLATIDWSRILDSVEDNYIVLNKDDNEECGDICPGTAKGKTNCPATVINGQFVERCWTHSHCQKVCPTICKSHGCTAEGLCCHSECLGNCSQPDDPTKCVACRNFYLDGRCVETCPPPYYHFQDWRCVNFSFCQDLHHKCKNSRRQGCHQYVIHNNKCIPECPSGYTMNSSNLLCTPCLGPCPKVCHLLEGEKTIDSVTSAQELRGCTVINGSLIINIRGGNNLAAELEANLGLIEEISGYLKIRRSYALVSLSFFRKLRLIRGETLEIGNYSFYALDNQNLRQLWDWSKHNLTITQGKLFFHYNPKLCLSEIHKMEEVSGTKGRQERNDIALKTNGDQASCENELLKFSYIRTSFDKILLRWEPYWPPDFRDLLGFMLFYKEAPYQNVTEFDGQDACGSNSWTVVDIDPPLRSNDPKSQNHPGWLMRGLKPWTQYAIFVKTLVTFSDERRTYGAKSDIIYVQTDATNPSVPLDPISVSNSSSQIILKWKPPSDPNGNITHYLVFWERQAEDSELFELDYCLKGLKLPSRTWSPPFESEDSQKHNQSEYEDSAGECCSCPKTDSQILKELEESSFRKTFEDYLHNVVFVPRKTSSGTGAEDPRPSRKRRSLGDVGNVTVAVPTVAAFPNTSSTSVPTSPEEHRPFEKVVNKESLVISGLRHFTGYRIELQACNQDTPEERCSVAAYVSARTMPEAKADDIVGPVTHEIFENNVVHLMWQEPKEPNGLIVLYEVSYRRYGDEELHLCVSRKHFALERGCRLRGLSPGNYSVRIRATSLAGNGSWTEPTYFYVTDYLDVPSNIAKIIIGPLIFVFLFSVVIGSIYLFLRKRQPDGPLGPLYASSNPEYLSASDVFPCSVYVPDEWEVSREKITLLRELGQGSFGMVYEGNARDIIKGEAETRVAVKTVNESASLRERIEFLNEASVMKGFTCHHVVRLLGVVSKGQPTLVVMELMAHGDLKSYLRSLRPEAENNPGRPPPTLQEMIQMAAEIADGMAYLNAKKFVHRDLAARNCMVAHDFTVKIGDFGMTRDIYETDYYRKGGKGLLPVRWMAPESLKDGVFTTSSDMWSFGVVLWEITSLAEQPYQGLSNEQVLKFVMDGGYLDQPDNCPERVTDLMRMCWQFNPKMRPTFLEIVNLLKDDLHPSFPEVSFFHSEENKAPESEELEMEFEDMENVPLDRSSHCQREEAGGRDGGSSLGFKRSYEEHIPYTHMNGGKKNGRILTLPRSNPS
Method: as §1, §2, §3, §4, §5, §6

MEK1/MAP2K1 (h) = MEK1/MAP2K1 (h) (Homo sapiens (Human), UniProt Q02750); experiment: Kinase selectivity panel; format: biochemical; details: duplicate, read-out: % inhibition of control values, MEK1/MAP2K1 (h)
MEK1/MAP2K1 (h), sequence (Q02750 whole entry): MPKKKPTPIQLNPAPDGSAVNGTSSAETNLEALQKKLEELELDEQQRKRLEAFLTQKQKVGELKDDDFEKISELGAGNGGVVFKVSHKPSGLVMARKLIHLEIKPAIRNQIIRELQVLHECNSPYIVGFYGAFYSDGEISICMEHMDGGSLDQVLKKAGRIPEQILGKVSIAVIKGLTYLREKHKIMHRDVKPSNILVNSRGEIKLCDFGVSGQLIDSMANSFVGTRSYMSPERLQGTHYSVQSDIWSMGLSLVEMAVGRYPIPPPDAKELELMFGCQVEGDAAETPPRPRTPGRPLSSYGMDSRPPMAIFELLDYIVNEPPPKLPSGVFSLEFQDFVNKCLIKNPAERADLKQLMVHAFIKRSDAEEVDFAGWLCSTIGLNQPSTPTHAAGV
Method: as §1, §2, §3, §4, §5, §6

ERK1 (h) = ERK1 (h) (Homo sapiens (Human), UniProt P27361); experiment: Kinase selectivity panel; format: biochemical; details: duplicate, read-out: % inhibition of control values, ERK1 (h)
ERK1 (h), sequence (P27361 whole entry): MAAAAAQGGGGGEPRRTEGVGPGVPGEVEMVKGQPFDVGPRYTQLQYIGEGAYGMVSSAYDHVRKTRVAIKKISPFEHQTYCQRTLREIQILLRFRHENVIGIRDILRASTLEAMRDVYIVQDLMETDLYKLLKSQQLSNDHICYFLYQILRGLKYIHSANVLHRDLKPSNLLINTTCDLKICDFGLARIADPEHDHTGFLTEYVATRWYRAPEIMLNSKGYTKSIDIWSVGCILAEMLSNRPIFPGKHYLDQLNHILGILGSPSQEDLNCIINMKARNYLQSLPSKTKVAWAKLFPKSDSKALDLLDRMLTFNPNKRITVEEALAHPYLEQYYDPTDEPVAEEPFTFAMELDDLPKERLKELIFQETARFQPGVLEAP
Method: as §1, §2, §3, §4, §5, §6

DYRK1a (h) = DYRK1a (h) (Homo sapiens (Human), UniProt Q13627); experiment: Kinase selectivity panel and IC50 determination; format: biochemical; details: 10 μM, duplicate; read-out: % inhibition of control values, DYRK1a (h)
Method: as §1, §2, §3, §4
(§7) Compound 1 was also assayed to determine the IC50 values for three different kinases (PCTAIRE1, DYRK1a, and CDK2) in comparison to Gsk3β. The assay was conducted with the same method described above in test I, second assay.
as §5, §6

CDK2 (h) (cycA) = CDK2 (h) (cycA) (Homo sapiens (Human), UniProt P24941); experiment: Kinase selectivity panel and IC50 determination; format: biochemical; details: 10 μM, duplicate; read-out: % inhibition of control values, CDK2 (h) (cycA)
Method: as §1, §2, §3, §4, §7, §5, §6

PCTAIRE1 kinase (h) = PCTAIRE1 kinase (h) (Homo sapiens (Human), UniProt Q00536); experiment: Kinase selectivity panel and IC50 determination; format: biochemical; details: 10 μM, duplicate; read-out: % inhibition of control values, PCTAIRE1 kinase (h)
PCTAIRE1 kinase (h), sequence (Q00536 whole entry): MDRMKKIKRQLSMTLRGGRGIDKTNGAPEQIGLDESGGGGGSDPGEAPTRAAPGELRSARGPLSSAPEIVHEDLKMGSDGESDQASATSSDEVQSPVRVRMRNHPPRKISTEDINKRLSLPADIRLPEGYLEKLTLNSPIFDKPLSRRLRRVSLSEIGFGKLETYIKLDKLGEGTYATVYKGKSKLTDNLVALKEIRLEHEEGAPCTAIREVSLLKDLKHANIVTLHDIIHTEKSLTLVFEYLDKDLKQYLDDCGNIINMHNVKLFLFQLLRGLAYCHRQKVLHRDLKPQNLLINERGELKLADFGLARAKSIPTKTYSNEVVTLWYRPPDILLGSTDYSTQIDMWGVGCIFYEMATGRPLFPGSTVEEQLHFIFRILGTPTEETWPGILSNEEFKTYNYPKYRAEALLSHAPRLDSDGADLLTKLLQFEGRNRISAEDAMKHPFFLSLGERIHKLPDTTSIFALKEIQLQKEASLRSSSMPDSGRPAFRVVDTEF
Method: as §1, §2, §3, §4, §7, §5, §6

human GSK-3β [1] = biological target: T1, human GSK-3β (Homo sapiens (Human), UniProt P49841); experiment: Activity on human GSK-3β, substrate phosphorylation measured by LANCE technology; format: biochemical; details: LANCE phosphorylation assay; five concentrations 100 μM to 10 nM, duplicate; read-out: IC50
T1 sequence (P49841 whole entry): as the sequence (P49841 whole entry) above
Method: Activity on human GSK-3β was assessed using the following methods (according to Meijer et al., Chem. Biol., 2003-10:1255-1266).
In a first screening assay, compounds were tested in duplicate at a concentration of 10 μM.
Human recombinant enzyme GSK-3β was incubated for 90 minutes at 22° C. in the presence of compounds or vehicle in a reaction buffer containing ATP plus 100 nM unphosphorylated specific substrate peptide (Ulight-[…]-amide). Substrate phosphorylation was measured by LANCE technology (PerkinElmer, Conn., USA).
The results, reported in the following Table 4, are expressed as a percent of inhibition of control specific activity obtained in the presence of the test compounds (as % inhibition at 10 μm).
(§8) In a second assay, the same compounds were assayed at five concentrations ranging from 100 μM to 10 nM with ten-fold dilutions in duplicate. Compounds 1 to 7, 9, 11 and 13 to 26 were tested using the same first assay, compounds 8, 10, 12, and 27 to 31 were tested in another assay based on the binding and displacement of AlexaFluor® 647 labeled, ATP-competitive Kinase inhibitor scaffold using LanthaScreen™ TR-FRET technology Eu Kinase assay packet according to manufacturer's instruction (Life Technologies, Italy).
(§9) The IC50 values (concentration causing a half maximal inhibition of control specific activity), reported in table 4, were determined by non-linear regression analysis of the inhibition curves generated with mean replicate values using Hill equation curve fitting.

human GSK-3β [2] = biological target: T1, human GSK-3β; experiment: LanthaScreen TR-FRET Eu Kinase binding and displacement assay; details: five concentrations 100 μM to 10 nM, duplicate
Method: as §8, §9

inhibition at 10 µM (HGK (h) (MAP4K4)) [%] | inhibition at 10 µM (Src kinase (h)) [%] | inhibition at 10 µM (NEK1 (h)) [%] | inhibition at 10 µM (ERK2 (h) (P42mapk)) [%] | inhibition at 10 µM (TAOK2 (TAO1) (h)) [%] | inhibition at 10 µM (smMLCK (h) (MYLK)) [%] | inhibition at 10 µM (CDC2/CDK1 (h) (cycB)) [%] | inhibition at 10 µM (CDK5/p35 (h)) [%] | inhibition at 10 µM (GSK3beta (h)) [%] | inhibition at 10 µM (TRKA (h)) [%] | inhibition at 10 µM (IRK (h) (InsR)) [%] | inhibition at 10 µM (MEK1/MAP2K1 (h)) [%] | inhibition at 10 µM (ERK1 (h)) [%] | inhibition at 10 µM (DYRK1a (h)) [%] | inhibition at 10 µM (CDK2 (h) (cycA)) [%] | inhibition at 10 µM (PCTAIRE1 kinase (h)) [%] | IC50 (human GSK-3β [1]) [nM] | IC50 (human GSK-3β [2]) [nM] | Compound | Selectivity for GSK-3β compared to the other kinases of the panel (GSK3beta (h))
21 | 9 | 0 | 33 | 16 | 26 | 6 | 21 | 96 | 1 | 0 | 27 | 31 | 88 | 48 | 2 | 130 | – | COC(=O)c1csc(CN2CCC(CNC(=O)c3n[nH]c4ccc(OC)cc34)CC2)n1 [Compound 7, Methyl 2-{[4-({[(5-methoxy-1H-indazol-3-yl)carbonyl]amino}methyl)piperidin-1-yl]methyl}-1,3-thiazole-4-carboxylate] | good selectivity profile
98 | 15 | 30 | 91 | 81 | 36 | 77 | 87 | 100 | 5 | 0 | 86 | 85 | 99 | 96 | 42 | – | 10 | O=C(O)c1coc(CN2CCC(CNC(=O)c3n[nH]c4ccc(-c5cccc(F)c5F)cc34)CC2)n1 [Compound 12, 2-({4-[({[5-(2,3-Difluorophenyl)-1H-indazol-3-yl]carbonyl}amino)methyl]piperidin-1-yl}methyl)-1,3-oxazole-4-carboxylic acid hydrate] | good affinity to GSK-3β when compared to most of other kinases of the same family
